The values below come from PubChem BioAssay (NCI).

Where “and” joins values, the source holds several entries; their conditions need not be identical. Equal entries are not always repeated.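 Five concentrations, 48 hours, 96-well plates. GI50 = concentration required for 50% inhibition of growth. TGI is the concentration that stops growth completely.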

Common to all, as to assay: NCI tumour cell line growth inhibition, 48 h
Assay [1] relates to DU-145 prostate.
For assay [2], the system named is HS 578T breast.
The subject of assay [3] is MDA-MB-435.
Assay [4] has as its system HOP-18 NSCLC.
Assay [5] concerns MDA-MB-231 breast.
Assay [6] deals with BT-549 breast.
Assay [7] concerns DMS 273 small cell lung.
Assay [8] relates to LXFL 529 NSCLC.
The subject of assay [9] is KM20L2 colon.
In assay [10] the test system is XF 498 CNS.

Take `O=C(NC(Cc1ccccc1)C(=O)CCl)OCc1ccccc1` (stereo not drawn): the GI50 is 10.9 µM in assay [1]; 6.23 µM in assay [2]; 3.59 µM in [3]; 7.02 µM in assay [5]; 2.31 µM in [6]. Further, the TGI in [1] was 22.9 µM; in assay [2] it was 36 µM; in [3], 14.3 µM; in assay [4] it was 24 µM; in assay [5], 20.7 µM; in [6], 6 µM. In addition, the TGI in assay [7] is 16.4 µM; in assay [8], 13.9 µM; in assay [9] it was 20.2 µM.
In the case of `[Au+].c1c[n-]cn1.c1ccc([PH+](c2ccccc2)c2ccccc2)cc1`, the GI50 in assay [1] is 17.2 µM; in assay [2] it was 17.1 µM; in assay [3], 5.17 µM; in assay [4], 2.08 µM; in [6], 3.29 µM; in assay [7], 7.87 µM. In addition, the GI50 in assay [8] was 1.59 µM; in assay [9], 21.9 µM. For the same compound, the TGI in [1] is 36.5 µM; in assay [2], above 100 µM; in [3], 23.1 µM; in assay [4], 4.35 µM; in assay [6], above 100 µM; in assay [7] it was above 44 µM. The TGI in [8] is 2.95 µM; in assay [9], 58.3 µM.
On to `O=c1sc(-c2nc3ccccc3[nH]2)c(/N=C/c2ccccc2)n1-c1ccccc1`, for which the TGI in assay [10] is 54.7 µM; in assay [4] it was above 100 µM; in assay [7], above 100 µM; in assay [8], above 100 µM.
Regarding `C=C1CCC2(C(C)=O)COC1(C)O2` (stereo not drawn), the TGI in assay [10], in assay [4] and in assay [7] was above 100 µM each time.
As to `CCOC(=O)CP(=S)(S)c1ccccc1` (stereo not drawn), the TGI in assay [10], in [7], in assay [8] and in [9] was above 100 µM each time.
Regarding `COc1cc([C@@H]2c3cc4c(cc3[C@@H](NC(=O)c3ccc(OC(C)=O)cc3)C3COC(=O)[C@@H]32)OCO4)cc(OC)c1O` (stereo partly drawn), the TGI in [10] was 6.96 µM; in assay [4], above 100 µM; in [7], 12.4 µM; in assay [8] it was 44.2 µM; in [9], 12.7 µM.
Take `c1cnc2nc3n(c2c1)CSC3`: the TGI in assay [10], in [8] and in assay [9] was above 100 µM throughout.
For the compound `O=C1CCCCCCCCCCOC(=O)CCCCCCCCCCO1`, the TGI in assay [4], in assay [7] and in [8] was above 100 µM in each case.
Take `O=C1NC(Cc2ccccc2)C(=O)N2CCCC12` (stereo not drawn): the TGI in assay [10], in assay [4], in assay [7], in assay [8] and in assay [9] was above 100 µM in each case.
As for `CC(O)c1ccc(C(O)/C(=N\NC(=O)c2ccncc2)c2nc3ccc([N+](=O)[O-])cc3[nH]c2=O)cc1` (stereo not drawn), the TGI in [10], in [7], in assay [8] and in [9] was above 100 µM in each case.
In the case of `O=[P+](O)c1cccnc1`, the TGI in [10], in assay [7], in [8] and in [9] was above 100 µM throughout.
With `COC(=O)C1=Cc2cn(S(=O)(=O)c3ccc(C)cc3)c3cccc(c23)C(C=C(C)C)N1C(C)=O` (stereo not drawn), the TGI in assay [10], in [4], in [7], in assay [8] and in assay [9] was above 100 µM in each case.
As to `O=C(O)c1ccccc1C1c2ccc(Cl)cc2Oc2cc(Cl)ccc21`, the TGI in assay [4], in [7], in [8] and in [9] was above 100 µM in each case.
Regarding `Cc1cc(C)c(C2=NO[C@@H]3C(=O)N(c4ccc(Cc5ccc(N6C(=O)[C@H]7C(c8c(C)cc(C)cc8C)=NO[C@H]7C6=O)cc5)cc4)C(=O)[C@H]23)c(C)c1`, the TGI in [10], in [4], in assay [7], in assay [8] and in [9] was above 100 µM throughout.
In the case of `C1C[S][Ge]2([S]CCS1)[S]CCSCC[S]2`, in assay [7], the GI50 is above 100 µM and the TGI was above 100 µM. In assay [8], the GI50 is above 100 µM and the TGI is above 100 µM.
With `Cc1nc(-n2nc(-c3ccccc3)cc2-c2ccccc2)sc1C(/C=C/c1ccc([N+](=O)[O-])cc1)=N/NC(N)=S`, the TGI in [8] and in assay [9] was above 100 µM in each case.
As to `Cc1ccc(S(=O)(=O)OC2CSSCC2OS(=O)(=O)c2ccc(C)cc2)cc1` (stereo not drawn), the TGI turned out to be 31.1 µM in assay [4], 21.8 µM in assay [7], 23.6 µM in [8] and 30.4 µM in assay [9].
The like results for `CCOC(=O)Cn1c(=O)[nH]c(=O)c2[nH]cnc21` were, in that order, above 100 µM, above 100 µM, above 100 µM and above 100 µM.
As for `C=CCn1c(=O)c(C(=O)NC(=O)OCC)cn(C2CCCCC2)c1=O`, the TGI in assay [10], in assay [4], in assay [7], in assay [8] and in [9] was above 100 µM throughout.
As to `COc1cc(=O)oc(/C=C/CO)c1C`, the TGI in [10], in assay [4], in [7], in assay [8] and in assay [9] was above 100 µM each time.
As to `Cc1cc(N(CCC#N)CCC#N)ccc1CC1N=C(c2ccccc2)OC1=O` (stereo not drawn), the TGI in [10], in assay [7], in assay [8] and in assay [9] was above 100 µM in each case.
On to `CCCCC1N=CNc2c1ccc1c2[nH]c2ccccc21` (stereo not drawn), for which the TGI amounted to 3.4 µM in assay [10]; 5.72 µM in [1]; 3.35 µM in assay [3]; 22.5 µM in assay [4]; 3.3 µM in assay [5]; 3.38 µM in assay [7]. In addition, the TGI in [8] came out at 3.78 µM.
On to `CN(CCCCN)c1ccc2c(=O)[nH][nH]c(=O)c2c1`, for which the TGI in assay [10], in assay [4], in [7] and in assay [8] was above 100 µM in each case.
For `NNC(=S)NN/C=C(\C=Nc1ccccc1)[N+](=O)[O-]`, the TGI in assay [10], in [8] and in [9] was above 100 µM in each case.
Take `C/C(CC(=O)Nc1cccc(C)c1C)=N\NC(N)=S`: the TGI in assay [10], in [4], in assay [7], in assay [8] and in assay [9] was above 100 µM each time.
For the compound `COc1cc(CC2C(=O)OCC2[C@@H](OC(C)=O)c2ccc3c(c2)OCO3)c(Br)c(OC)c1OC` (stereo partly drawn), the TGI in assay [10], in assay [4], in assay [7], in [8] and in assay [9] was above 100 µM in each case.
Turning to `COc1cc(CC(=O)c2cc3c(cc2-c2ccccc2)OCO3)cc(OC)c1OC`, the TGI was 77.3 µM in assay [10]; above 100 µM in assay [4]; above 100 µM in [7]; above 100 µM in [8]; above 100 µM in [9].
Consider `COc1ccc(NC(=O)C2=CC(=O)c3ccc(O)cc3C2=O)c(OC)c1`, for which the TGI in assay [10], in assay [4], in assay [8] and in assay [9] was above 100 µM each time.
Turning to `O=C1c2ccccc2-c2ccccc2C1(Cl)Cl`, the GI50 was 1.47 µM in [1]; 2.5 µM in assay [2]; 0.197 µM in assay [3]; 1.36 µM in [5]; 1.72 µM in assay [6]. Also, the TGI in [1] stood at 2.78 µM; in assay [2], 9.41 µM; in assay [3], 0.372 µM; in [5] it was 3.63 µM; in [6], 3.14 µM.
`CN(CC1NCCCC1O)C12CC3CC(CC(C3)C1)C2` (stereo not drawn): the TGI in assay [10], in assay [4], in assay [7], in assay [8] and in assay [9] was above 100 µM in each case.
In the case of `COc1cc2oc(-c3ccc(O)cc3)cc(=O)c2c(OC)c1O`, the TGI in assay [1], in assay [2], in assay [3], in assay [5] and in [6] was above 100 µM in each case.
For `C=CNC(=S)n1nc(-c2ccccc2NC(=O)C(F)(F)F)c(=O)n(C(=S)NC=C)c1=S`, the TGI was 83 µM in assay [10], above 100 µM in [7] and above 100 µM in [8].
Take `O=C(O)CCCc1cc2c(s1)-c1cccc3cccc-2c13`: the TGI in [10], in [7], in assay [8] and in assay [9] was above 100 µM each time.
Turning to `c1ccc(N2N=NC3C4CC(C5c6ccccc6C45)C32)cc1` (stereo not drawn), the TGI in [10] was 38.5 µM; in assay [7] it was above 100 µM; in assay [8], above 100 µM; in assay [9], above 100 µM.
Consider `Cc1cc2nc3c4cc([N+](=O)[O-])ccc4n(CCN(C)C)c3nc2cc1C`, for which the GI50 in [1] was 0.71 µM; in [2] it was 1.39 µM; in assay [3] it was 0.635 µM; in assay [5] it was 0.602 µM; in assay [6], 2 µM. In addition, the TGI in assay [1] was above 27.8 µM; in [2] it was 5.87 µM; in [3] it was 1.96 µM; in [5], above 32.7 µM; in assay [6] it was 5.85 µM.
With `C[C@H]1CCC2C(CN3CCCCC3)C(=O)OC2[C@]2(C)C(=O)CC(N3CCCCC3)C12O` (stereo partly drawn), the TGI in [4] was 48.4 µM; in assay [7], 23.4 µM.
In the case of `CSCC(COC(C)=O)(CSC)c1ccncc1`, the TGI in assay [7], in assay [8] and in assay [9] was above 100 µM throughout.
Consider `O=C(CC(=O)N1N=C(c2ccccc2)C(N=Nc2ccccc2Cl)C1=O)Nc1ccccc1Cl` (stereo not drawn), for which the TGI in assay [10] was 51.1 µM; in assay [7], above 100 µM; in assay [8], above 100 µM; in assay [9] it was above 100 µM.
As for `C/C(CC(=O)Nc1ccc([N+](=O)[O-])cc1)=N\Nc1ccc([N+](=O)[O-])cc1[N+](=O)[O-]`, the TGI in [10], in [7], in assay [8] and in [9] was above 100 µM in each case.
Regarding `COC(=O)Cc1nn2c(nc1=O)sc1ccc3ccccc3c12`, the TGI in assay [4], in assay [8] and in [9] was above 100 µM each time.
In the case of `O=[N+]([O-])c1cccc([I+]c2ccccc2)c1`, the GI50 in assay [1] was 11.1 µM; in assay [2], 10.1 µM; in assay [3], 11.6 µM; in assay [5] it was 14.8 µM; in [6], 10.5 µM. Further, the TGI amounted to 24.3 µM in [1]; 68.2 µM in assay [2]; 29.2 µM in assay [3]; 33.6 µM in assay [5]; 23.1 µM in assay [6].
On to `CC(C)OC(=O)c1cccnc1/C=N/O`, for which the TGI in [10], in assay [7], in assay [8] and in assay [9] was above 100 µM throughout.
For `COc1ccc(/C=C/C(=O)c2ccccc2)cc1OC`, the TGI in assay [1] is 24.4 µM and 26.4 µM; in assay [2], 65 µM and > 100 µM; in assay [3], 14.6 µM and 25.2 µM; in assay [5], 38.1 µM and 52.6 µM; in assay [6], 37.5 µM and 35.3 µM. The GI50 was 42.3 µM in assay [2] and 6.89 µM in [3].
In the case of `Clc1ccc(Nc2ncnc3c2sc2ncccc23)c(Cl)c1`, the GI50 in [1] was 0.0276 µM; in assay [2] it was above 100 µM; in assay [3], 0.0482 µM; in [5], above 100 µM; in [6] it was 0.0243 µM. Besides, the TGI in assay [1], in [2], in [3], in assay [5] and in assay [6] was above 100 µM each time.
Consider `NC(CSC1(c2ccc(Cl)cc2)c2ccccc2-c2ccccc21)C(=O)O` (stereo not drawn), for which the TGI in assay [1] was above 100 µM; in [2] it was 45.6 µM; in assay [3] it was 35.3 µM; in [5], 35.7 µM; in assay [6], 34.6 µM.
